Results reported in patent publication US20020183366A1, “Cyclooxygenase-2 inhibitors, compositions and methods of use” (priority 2001, published 2002).

Key:
[1] = biological target: T1, ovine COX-1 (Ovis aries, UniProt P05979); assay: COX Inhibitor Screening Assay, COX-1 activity; format: biochemical; settings: 100 μM test compound
T1 construct: purchased Cayman Chemical, Ann Arbor, Mich
T1 sequence (P05979 25-600): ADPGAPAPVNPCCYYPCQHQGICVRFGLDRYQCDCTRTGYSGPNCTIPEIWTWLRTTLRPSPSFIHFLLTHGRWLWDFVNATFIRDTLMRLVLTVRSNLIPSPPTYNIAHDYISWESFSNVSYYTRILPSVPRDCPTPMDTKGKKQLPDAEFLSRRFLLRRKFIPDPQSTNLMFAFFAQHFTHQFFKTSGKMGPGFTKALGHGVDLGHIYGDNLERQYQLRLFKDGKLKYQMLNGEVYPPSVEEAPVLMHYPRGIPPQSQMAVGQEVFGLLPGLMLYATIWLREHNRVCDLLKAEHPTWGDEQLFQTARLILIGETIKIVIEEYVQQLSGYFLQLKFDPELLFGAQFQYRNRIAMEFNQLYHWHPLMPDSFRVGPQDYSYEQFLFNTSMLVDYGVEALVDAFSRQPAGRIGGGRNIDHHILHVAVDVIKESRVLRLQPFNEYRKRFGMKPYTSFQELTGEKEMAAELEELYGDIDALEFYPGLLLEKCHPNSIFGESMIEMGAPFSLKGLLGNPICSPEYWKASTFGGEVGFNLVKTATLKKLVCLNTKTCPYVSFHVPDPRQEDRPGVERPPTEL
Protocol: (§1) The ovine COX-1 and human CO-2 activities and the measurement of the prostaglandin products synthesized were performed using the COX Inhibitor Screening Assay (Cayman Chemical, Ann Arbor, Mich., which also contained the Prostaglandin Screening EIA Kit, used for prostaglandin quantification). The test compounds were dissolved at 50 times the highest final reaction concentration in DMSO or any other suitable solvent as stock solutions. These stock solutions were then diluted in the same solvent. Eight glass test tubes (13×100 mm) were placed in a 37° C. water bath. To each test tube was added 950 μL of reaction buffer (0.1 M Tris-HCl, pH 8.0, containing 5 mM EDTA, and 2 mM phenol), 10 μL of 100 µM heme solution, and 10 μL (5 units) of either ovine COX-1 or human COX-2 and the resulting mixture was incubated with the enzyme for 2 minutes. Twenty μL of the solvent was added to one tube (100% initial activity or solvent control) and 20 μL of each dilution of the test compound was added to one tube each. Each tube was vortexed immediately after the addition. The enzyme was incubated with the inhibitor for 3.5 minutes at 37° C. The enzymatic reaction was then initiated by the addition of 10 μL of freshly prepared 10 mM arachidonic acid (neutralized with KOH), vortexed and then incubated for 2 minutes at 37° C. […]

[2] = biological target: T2, human COX-2 (Homo sapiens, UniProt P35354); assay: COX Inhibitor Screening Assay, COX-2 activity; format: biochemical
T2 construct: purchased Cayman Chemical, Ann Arbor, Mich
T2 sequence (P35354 18-604): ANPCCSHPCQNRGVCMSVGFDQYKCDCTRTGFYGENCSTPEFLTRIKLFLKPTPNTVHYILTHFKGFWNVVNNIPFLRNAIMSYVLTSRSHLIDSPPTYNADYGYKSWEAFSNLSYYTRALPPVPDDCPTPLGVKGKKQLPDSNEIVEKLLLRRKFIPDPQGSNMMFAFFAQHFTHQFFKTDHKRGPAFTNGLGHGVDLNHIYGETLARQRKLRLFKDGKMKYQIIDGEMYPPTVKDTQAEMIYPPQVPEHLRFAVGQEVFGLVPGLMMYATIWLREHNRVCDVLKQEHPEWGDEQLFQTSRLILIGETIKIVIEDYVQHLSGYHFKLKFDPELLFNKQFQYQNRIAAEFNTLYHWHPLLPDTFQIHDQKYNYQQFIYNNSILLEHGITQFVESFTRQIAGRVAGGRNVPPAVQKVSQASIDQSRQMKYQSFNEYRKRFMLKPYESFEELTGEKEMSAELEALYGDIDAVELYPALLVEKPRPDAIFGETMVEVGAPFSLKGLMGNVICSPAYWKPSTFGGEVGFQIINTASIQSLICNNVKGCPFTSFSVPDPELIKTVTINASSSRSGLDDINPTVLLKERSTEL
Protocol: as §1

`O=C1OCC(c2ccc(S(=O)(=O)CF)cc2)=C1c1ccccc1` [Example 1, 4-(4-((Fluoromethyl)sulfonyl)phenyl)-3-phenyl-5-hydrofuran-2-one] was tested, and the “COX-1 Inhibition (% at 100 μM)” value [1] was 30%, the “COX-2 Inhibition (% at 10 μM)” value ([2]; 10 μM test compound, human COX-2) was 40% and the COX-2 selectivity ([2]; COX-2 versus COX-1, from Table 1) was “has COX-2 selectivity”.
